The values below come from PMC3718205 (Biochemical and biophysical research communications, 2012).

Where a SMILES comes first, the peptide text is derived from it. The star is where a group is joined. X1 = C/C(=C\C*)CC/C=C(\C)COCc1ccc(C(=O)c2ccccc2)cc1; X3 = C/C(=C\C*)CC/C=C(\C)COCc1cccc(C(=O)c2ccccc2)c1; Biotin = O=C1N[C@H]2[C@H](CS[C@H]2CCCCC(=O)*)N1; X2 = C/C(=C\C*)COCc1cccc(C(=O)c2ccccc2)c1; X4 = C/C(=C\C*)COCc1ccc(C(=O)c2ccccc2)cc1; PEG4 = NCCOCCOCCOCCOCCC(=O)O

The target of test [1] is T1, His10myc3N-hIcmt (His-hIcmt) (Homo sapiens, UniProt O60725). The experiment in a line: Inhibition of His-hIcmt methyltransferase activity. In kind it is biochemical.
In test [2] the target is T2, His10myc3N-Ste14p (His-Ste14p) (Saccharomyces cerevisiae, UniProt P32584).
T2 sequence (P32584 1-239): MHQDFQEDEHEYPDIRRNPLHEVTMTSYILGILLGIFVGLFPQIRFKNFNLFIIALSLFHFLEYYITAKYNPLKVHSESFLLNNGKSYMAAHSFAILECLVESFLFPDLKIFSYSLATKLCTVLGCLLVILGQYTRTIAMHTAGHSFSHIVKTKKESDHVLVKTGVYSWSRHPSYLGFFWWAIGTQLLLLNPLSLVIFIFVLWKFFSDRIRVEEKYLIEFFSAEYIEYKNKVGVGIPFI
The experiment in a line: In vitro methyltransferase vapor diffusion assay, substrate kinetics, His-Ste14p. In kind it is biochemical, S. cerevisiae. To be noted: for Fold lower Km of para- vs meta-substituted benzophenone a-factor analogs: His-Ste14p, vs meta-substituted analogs (7a, 8a); for Vmax: crude yeast membranes expressing His-Ste14p.

The subject of test [3] is human Icmt (hIcmt). To be noted: cited from earlier work.
For test [4], the system named is yeast Icmt. To be noted: cited from earlier work.
Test [5] has as its target T1, His10myc3N-hIcmt (His-hIcmt). To be noted: AFC; ± S.D.; cited from earlier work.
Test [6] addresses T2, His10myc3N-Ste14p (His-Ste14p). To be noted: read-out: Km(app); AFC positive control; ± S.D.; cited from earlier work.
The subject of test [7] is His-Icmt. The experiment in a line: Competition of photolabeling by 8b with AFC, His-hIcmt. It counts as binding, human. To be noted: 8b 200 μM, increasing AFC; data not shown.

T1 sequence (O60725 whole entry): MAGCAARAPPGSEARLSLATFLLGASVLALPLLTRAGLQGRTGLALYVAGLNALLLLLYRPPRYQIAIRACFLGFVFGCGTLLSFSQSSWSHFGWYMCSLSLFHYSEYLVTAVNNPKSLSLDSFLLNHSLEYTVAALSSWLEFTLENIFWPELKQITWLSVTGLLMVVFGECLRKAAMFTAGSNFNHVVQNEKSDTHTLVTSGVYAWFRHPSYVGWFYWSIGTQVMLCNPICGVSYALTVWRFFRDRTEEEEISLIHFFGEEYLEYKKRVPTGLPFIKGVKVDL

Consider `CC[C@H](C)[C@H](NC(=O)[C@H](Cc1ccc(O)cc1)NC(=O)CCOCCOCCOCCOCCNC(=O)CCCC[C@@H]1SC[C@@H]2NC(=O)N[C@@H]21)C(=O)N[C@H](C(=O)N[C@@H](CCCCN)C(=O)NCC(=O)N[C@H](C(=O)N[C@@H](Cc1ccccc1)C(=O)N[C@@H](Cc1c[nH]c2ccccc12)C(=O)N[C@@H](CC(=O)O)C(=O)N1CCC[C@H]1C(=O)N[C@@H](C)C(=O)N[C@@H](CSC/C=C(\C)COCc1ccc(C(=O)c2ccccc2)cc1)C(=O)O)C(C)C)[C@@H](C)CC` [Compound 7b, Biotin-Peg4-YIIKGVFWDPAC(C5-para-Bp)] ({Biotin-PEG4}-YIIKGVFWDPAC(X4)-OH), for which the “Inhibition of His-hIcmt (in words)” value in test [1] was “poor inhibitors of His-hIcmt”. Moreover, the “Fold lower Km of para- vs meta-substituted benzophenone a-factor analogs” value in test [2] is 2 – 3 times lower.

Regarding `CC(C)=CCCC(C)=CCCC(C)=CCSCCC(=O)O` [FTP, farnesyl thiopropionic acid], the “Substrate of human Icmt (in words)” value in test [3] is “substrates for both human and yeast Icmts”. Moreover, the “Substrate of yeast Icmt (in words)” value in test [4] is “substrates for both human and yeast Icmts”.

For `CC[C@H](C)[C@H](NC(=O)[C@H](Cc1ccc(O)cc1)NC(=O)CCOCCOCCOCCOCCNC(=O)CCCC[C@@H]1SC[C@@H]2NC(=O)N[C@@H]21)C(=O)N[C@H](C(=O)N[C@@H](CCCCN)C(=O)NCC(=O)N[C@H](C(=O)N[C@@H](Cc1ccccc1)C(=O)N[C@@H](Cc1c[nH]c2ccccc12)C(=O)N[C@@H](CC(=O)O)C(=O)N1CCC[C@H]1C(=O)N[C@@H](C)C(=O)N[C@@H](CSC/C=C(\C)COCc1cccc(C(=O)c2ccccc2)c1)C(=O)O)C(C)C)[C@@H](C)CC` [Compound 7a, Biotin-Peg4-YIIKGVFWDPAC(C5-meta-Bp)] ({Biotin-PEG4}-YIIKGVFWDPAC(X2)-OH), the “Inhibition of His-hIcmt (in words)” value in test [1] was “poor inhibitors of His-hIcmt”. Moreover, in test [2], the maximum rate (Vmax) is given as 473 pmol/min/mg.

As to `CC(=O)N[C@@H](CSC/C=C(\C)CC/C=C(\C)CC/C=C(\C)CCC=C(C)C)C(=O)O` [AGGC, N-acetyl-S-geranylgeranyl-L-cysteine], in test [3], the “Substrate of human Icmt (in words)” value is “substrates for both human and yeast Icmts”. The “Substrate of yeast Icmt (in words)” value in test [4] was “substrates for both human and yeast Icmts”.

`CC[C@H](C)[C@H](NC(=O)[C@H](Cc1ccc(O)cc1)NC(=O)CCOCCOCCOCCOCCNC(=O)CCCC[C@@H]1SC[C@@H]2NC(=O)N[C@@H]21)C(=O)N[C@H](C(=O)N[C@@H](CCCCN)C(=O)NCC(=O)N[C@H](C(=O)N[C@@H](Cc1ccccc1)C(=O)N[C@@H](Cc1c[nH]c2ccccc12)C(=O)N[C@@H](CC(=O)O)C(=O)N1CCC[C@H]1C(=O)N[C@@H](C)C(=O)N[C@@H](CSC/C=C(\C)CC/C=C(\C)COCc1cccc(C(=O)c2ccccc2)c1)C(=O)O)C(C)C)[C@@H](C)CC` [Compound 8a, Biotin-Peg 4-YIIKGVFWDPAC(C10-meta-Bp)] ({Biotin-PEG4}-YIIKGVFWDPAC(X3)-OH): the “Inhibition of His-hIcmt (in words)” value in test [1] was “relatively potent”. Moreover, the “Vmax” value in test [2] came to 762 pmol/min/mg.

For `CC(=O)N[C@@H](CSC/C=C(\C)CC/C=C(\C)CCC=C(C)C)C(=O)O` [Compound 1, N-acetyl-S-farnesyl-L-cysteine], the “Substrate of human Icmt (in words)” value in test [3] was “substrates for both human and yeast Icmts”. Further, the “Vmax” value in test [2] stood at 869 pmol/min/mg. Further, the “Substrate of yeast Icmt (in words)” value in test [4] is “substrates for both human and yeast Icmts”. The Km was 10.3 ± 0.5 µM in test [5] and 15.9 ± 0.9 µM in test [6].

Turning to `CC[C@H](C)[C@H](NC(=O)[C@H](Cc1ccc(O)cc1)NC(=O)CCOCCOCCOCCOCCNC(=O)CCCC[C@@H]1SC[C@@H]2NC(=O)N[C@@H]21)C(=O)N[C@H](C(=O)N[C@@H](CCCCN)C(=O)NCC(=O)N[C@H](C(=O)N[C@@H](Cc1ccccc1)C(=O)N[C@@H](Cc1c[nH]c2ccccc12)C(=O)N[C@@H](CC(=O)O)C(=O)N1CCC[C@H]1C(=O)N[C@@H](C)C(=O)N[C@@H](CSC/C=C(\C)CC/C=C(\C)COCc1ccc(C(=O)c2ccccc2)cc1)C(=O)O)C(C)C)[C@@H](C)CC` [Compound 8b, Biotin-Peg4-YIIKGVFWDPAC(C10-para-Bp)] ({Biotin-PEG4}-YIIKGVFWDPAC(X1)-OH), in test [1], the “Inhibition of His-hIcmt (in words)” value is “relatively potent”. Also, in test [7], the “Mode of inhibition (in words)” value is “competitive inhibitor” and the “Photolabeling by 8b in presence of AFC (in words)” value is reported as “decreased with increasing AFC concentration”. Besides, in test [2], the “Fold lower Km of para- vs meta-substituted benzophenone a-factor analogs” value is given as 2 – 3 times lower.

One may read the Vmax as the top rate of the reaction or transport when substrate is in excess. As a reminder, the Km is the substrate concentration at which the rate is half of its maximum.
